Reference: patent US20190054087A1, “TREATMENT OF SMALL CELL LUNG CANCER WITH A PARP INHIBITOR” (priority 2015, published 2019)
Read-outs that look alike come from different tables or passages of the source.

Experiments:
38 SCLC cell lines = assay: Cell line cytotoxicity assay (CellTiter Glo), panel of 38 SCLC cell lines; type: cell-based; details: Homo sapiens, 38 SCLC lines, 5 or 7 days incubation, generational method
Procedure: Various SCLC cell lines (38) were obtained from ATCC (American Type Culture Collection), ECACC (European Collection of Cell Cultures), JCRB (Japanese Collection of Research Bioresources), and CLS Cell Lines Service as shown in Table 1. […] After 24 h, talazoparib at 2000, 400, 80, 16, 3.2, or 0.64 nM in 0.2% DMSO, or cisplatin at 100,000, 2000, 400, 80, 16, or 3.2 nM were added in duplicate, and incubated for an additional 5 or 7 days. Cell survival was determined by CellTiter Glo assay (Promega). Cell growth inhibition was calculated by two methods: (a) the treated cell counts relative to untreated control to obtain IC50 (convention survival fraction method), or (b) doublings from baseline under treatment relative to doublings from baseline without treatment to obtain GI50 (generational method), using GraphPad Prism5. Maximum inhibition levels for each method were also obtained.

NCI-H209 SCLC cell line = assay: Cell line cytotoxicity assay (CellTiter Glo), NCI-H209; type: cell-based; details: Homo sapiens, SLFN11 RMA 8.794, read-out: BMN 673 Sensitivity In vitro GI50
Procedure: (§1) After 24 h, talazoparib at 2000, 400, 80, 16, 3.2, or 0.64 nM in 0.2% DMSO, or cisplatin at 100,000, 2000, 400, 80, 16, or 3.2 nM were added in duplicate, and incubated for an additional 5 or 7 days. Cell survival was determined by CellTiter Glo assay (Promega). Cell growth inhibition was calculated by two methods: (a) the treated cell counts relative to untreated control to obtain IC50 (convention survival fraction method), or (b) doublings from baseline under treatment relative to doublings from baseline without treatment to obtain GI50 (generational method), using GraphPad Prism5. Maximum inhibition levels for each method were also obtained.

NCI-H1048 SCLC cell line = assay: Cell line cytotoxicity assay (CellTiter Glo), NCI-H1048; type: cell-based; details: Homo sapiens, SLFN11 RMA 7.583, read-out: BMN 673 Sensitivity In vitro GI50
Procedure: as §1

NCI-H69 SCLC cell line = assay: Cell line cytotoxicity assay (CellTiter Glo), NCI-H69; type: cell-based; details: Homo sapiens, SLFN11 RMA 3.981, read-out: BMN 673 Sensitivity In vitro GI50
Procedure: as §1

NCI-H209 SCLC xenograft = assay: Cell line-derived xenograft model NCI-H209; type: in vivo, BALB/c nude mice; details: 0.33 mg/kg, Q1D×28 p.o.
Procedure: (§2) Human NCI-H1048, NCI-H209, and NCI-H69 SCLC tumor cells were injected subcutaneously in the flanks of BALB/c nude mice. When tumors reached approximately 130 mm^3 average volume, animals (n=8 per group) were treated with vehicle (Q1D×28, p.o.), cisplatin (6 mg/kg, Q6D×2 i.p.), or talazoparib (0.33 mg/kg, Q1D×28 p.o.). Tumor growth and animal body weight were monitored twice per week by standard methods.

NCI-H1048 SCLC xenograft = assay: Cell line-derived xenograft model NCI-H1048; type: in vivo, BALB/c nude mice; details: 0.33 mg/kg, Q1D×28 p.o.
Procedure: as §2

NCI-H69 SCLC xenograft = assay: Cell line-derived xenograft model NCI-H69; type: in vivo, BALB/c nude mice; details: 0.33 mg/kg, Q1D×28 p.o.
Procedure: as §2

[1] = test system: LU-01-0547 SCLC PDX tumor; assay: Human SCLC PDX model LU-01-0547; type: in vivo, immunocompromised mice; details: D 83, MTD 0.25-0.3 mg/kg once daily oral, median tumor volume (n = 5)
Procedure: (§3) Twelve human SCLC PDX models (obtained from Crown Biosciences, OncoTest, WuxiAppTec) were evaluated for their responses to talazoparib single agent treatment. PDX tumors were propagated subcutaneously in immunocompromised mice at passage 3 to 13. When tumors reached approximately 150 mm^3 average volume, animals (n=5 per group) were administered orally with vehicle (once daily dose), or talazoparib at the maximum tolerated dose (MTD; 0.25-0.3 mg/kg, once daily). Tumor volume and animal body weight were measured twice weekly until the end of study or until tumor size exceeded 2000 mm^3. Untreated tumor samples were collected from mice. Median tumor volume on Day 21 and beyond after first treatment was used to calculate the change from baseline to evaluate response.

CTG-0198 SCLC PDX tumor = assay: Human SCLC PDX model CTG-0198; type: in vivo, immunocompromised mice; details: D 29, MTD 0.25-0.3 mg/kg once daily oral, median tumor volume (n = 5)
Procedure: as §3

LU1267 SCLC PDX tumor = assay: Human SCLC PDX model LU1267; type: in vivo, immunocompromised mice; details: D 38, MTD 0.25-0.3 mg/kg once daily oral, median tumor volume (n = 5)
Procedure: as §3

LU67 SCLC PDX tumor = assay: Human SCLC PDX model LU67; type: in vivo, immunocompromised mice; details: D 25, MTD 0.25-0.3 mg/kg once daily oral, median tumor volume (n = 5)
Procedure: as §3

LU65 SCLC PDX tumor = assay: Human SCLC PDX model LU65; type: in vivo, immunocompromised mice; details: D 21, MTD 0.25-0.3 mg/kg once daily oral, median tumor volume (n = 5)
Procedure: as §3

LXFS 615 SCLC PDX tumor = assay: Human SCLC PDX model LXFS 615; type: in vivo, immunocompromised mice; details: D 21, MTD 0.25-0.3 mg/kg once daily oral, median tumor volume (n = 5)
Procedure: as §3

LXFS 1129 SCLC PDX tumor = assay: Human SCLC PDX model LXFS 1129; type: in vivo, immunocompromised mice; details: D 21, MTD 0.25-0.3 mg/kg once daily oral, median tumor volume (n = 5)
Procedure: as §3

LU2514 SCLC PDX tumor = assay: Human SCLC PDX model LU2514; type: in vivo, immunocompromised mice; details: D 21, MTD 0.25-0.3 mg/kg once daily oral, median tumor volume (n = 5)
Procedure: as §3

LXFS 650 SCLC PDX tumor = assay: Human SCLC PDX model LXFS 650; type: in vivo, immunocompromised mice; details: D 21, MTD 0.25-0.3 mg/kg once daily oral, median tumor volume (n = 5)
Procedure: as §3

CTG-0199 SCLC PDX tumor = assay: Human SCLC PDX model CTG-0199; type: in vivo, immunocompromised mice; details: D 21, MTD 0.25-0.3 mg/kg once daily oral, median tumor volume (n = 5)
Procedure: as §3

LXFS 573 SCLC PDX tumor = assay: Human SCLC PDX model LXFS 573; type: in vivo, immunocompromised mice; details: D 21, MTD 0.25-0.3 mg/kg once daily oral, median tumor volume (n = 5)
Procedure: as §3

LXFS 2156 SCLC PDX tumor = assay: Human SCLC PDX model LXFS 2156; type: in vivo, immunocompromised mice; details: D 21, MTD 0.25-0.3 mg/kg once daily oral, median tumor volume (n = 5)
Procedure: as §3

[2] = test system: Twelve human SCLC PDX models; assay: Twelve human SCLC PDX models, response classification; type: in vivo, immunocompromised mice; details: 12 SCLC PDX models; talazoparib at maximum tolerated dose
Procedure: as §3
Twelve human SCLC PDX models were further tested with talazoparib at maximum tolerated doses compared to a vehicle control.

Structure (SMILES): Cn1ncnc1[C@H]1c2n[nH]c(=O)c3cc(F)cc(c23)N[C@@H]1c1ccc(F)cc1 [talazoparib]
- GI50 (38 SCLC cell lines; read-out: GI50 range across the 38 SCLC lines): ≥ 2 nM
- GI50 (38 SCLC cell lines; read-out: median GI50 across the 38 SCLC lines): 56 nM
- GI50 (NCI-H209 SCLC cell line): 2.03 nM
- GI50 (NCI-H1048 SCLC cell line): 14.4 nM
- GI50 (NCI-H69 SCLC cell line): 190 nM
- BMN 673 Sensitivity In vivo Tumor growth (NCI-H209 SCLC xenograft): much more sensitive to talazoparib than the H69 model
- BMN 673 Sensitivity In vivo Tumor growth (NCI-H209 SCLC xenograft; listed as BMN 673, 0.33 mg/kg): Delay
- BMN 673 Sensitivity In vivo Tumor growth (NCI-H1048 SCLC xenograft): much more sensitive to talazoparib than the H69 model
- BMN 673 Sensitivity In vivo Tumor growth (NCI-H1048 SCLC xenograft; listed as BMN 673, 0.33 mg/kg): Delay
- BMN 673 Sensitivity In vivo Tumor growth (NCI-H69 SCLC xenograft): No delay
- Best response: Change from base line (%) [1]: −95%
- Best response: Change from base line (%) (CTG-0198 SCLC PDX tumor): −55%
- Best response: Change from base line (%) (LU1267 SCLC PDX tumor): −30%
- Best response: Change from base line (%) (LU67 SCLC PDX tumor): −29%
- Best response: Change from base line (%) (LU65 SCLC PDX tumor): 17%
- Best response: Change from base line (%) (LXFS 615 SCLC PDX tumor): 83%
- Best response: Change from base line (%) (LXFS 1129 SCLC PDX tumor): 260%
- Best response: Change from base line (%) (LU2514 SCLC PDX tumor): 262%
- Best response: Change from base line (%) (LXFS 650 SCLC PDX tumor): 314%
- Best response: Change from base line (%) (CTG-0199 SCLC PDX tumor): 318%
- Best response: Change from base line (%) (LXFS 573 SCLC PDX tumor): 351%
- Best response: Change from base line (%) (LXFS 2156 SCLC PDX tumor): 615%
- PDX models designated as progressive disease (PD) [2]: remaining PDX models were resistant
- PDX models with 30% or more tumor regression compared to baseline (partial responders, PR) [2]: Three of the 12
- PDX tumors with stable disease (SD)-like responses, tumor growth less than 100% on Day 21 or beyond [2]: three of the 12
